Laboratory results published in US7601355B2, “Compositions and methods for altering immune function” (Northwestern University, priority 2005, dated 2009).
Entries after “also recorded” stand apart in the source; their conditions may differ.

What was measured:
DO11.10 T cells = test: in vitro screen: 3H-thymidine proliferation of DO11.10 T cells co-cultured with OVA323-339-pulsed dendritic cells (non-specific toxicity screen); assay type: cell-based, mice; conditions: 5 mM and 0.1 μM; 16:1 and 64:1 ratio T:DC co-cultures
Protocol: The initial biological screen for the selected small molecule compounds was based in functional characteristics of enhancement of Th1 function and secretion of Th1 cytokines (e.g., Interferon-γ (IFN-γ)). In this process, dendritic cells (DC) were obtained by GM-CSF stimulation of bone marrow stem cells for 6 days, pulsed for 18 hours with OVA323-339 peptide to load specific antigen on these antigen presenting cells and then purified using CD11c magnetic bead separation. This population of cells is routinely >98% CD11c positive, as determined by flow cytometry. Transgenic T cells with specificity for the ovalbumin 323-339 epitope (OVA323-339) were obtained from naïve spleens of DO11.10 transgenic mice. The splenic cells were harvested and magnetic beads used to isolate the CD4 T cell population. This latter population of cells is routinely >95% CD4^+. The cells were then co-cultured in round-bottomed 96 well tissue culture plates, at varying ratios, maintaining 2×10^5 CD4^+ T cells in each well, and varying the number of dendritic cells added (See FIG. 2). […]
An initial screen was carried out with 18 compounds, using the in vitro screening process established in Example 2, above. Initially, all 18 compounds were evaluated for toxicity at 5 mM and 0.1 μM, by evaluation of proliferation of 16:1 and 64:1 ratio T:DC co-cultures. […]

[1] = test system: co-cultures of DC-T cells; test: in vitro screen: IFN-γ secretion in DO11.10 T cell / OVA323-339-peptide loaded dendritic cell co-cultures; assay type: cell-based, mice; conditions: for IFN-γ enhancement at the highest concentration: 64:1 ratio, 1000 ng/ml; for IFN-γ secretion compared to control samples: initial screen, 16:1 and 64:1 T:DC co-cultures
Protocol: The initial biological screen for the selected small molecule compounds was based in functional characteristics of enhancement of Th1 function and secretion of Th1 cytokines (e.g., Interferon-γ (IFN-γ)). In this process, dendritic cells (DC) were obtained by GM-CSF stimulation of bone marrow stem cells for 6 days, pulsed for 18 hours with OVA323-339 peptide to load specific antigen on these antigen presenting cells and then purified using CD11c magnetic bead separation. This population of cells is routinely >98% CD11c positive, as determined by flow cytometry. Transgenic T cells with specificity for the ovalbumin 323-339 epitope (OVA323-339) were obtained from naïve spleens of DO11.10 transgenic mice. The splenic cells were harvested and magnetic beads used to isolate the CD4 T cell population. This latter population of cells is routinely >95% CD4^+. The cells were then co-cultured in round-bottomed 96 well tissue culture plates, at varying ratios, maintaining 2×10^5 CD4^+ T cells in each well, and varying the number of dendritic cells added (See FIG. 2).
The in vitro screen for functional activity was based on two parameters. The first parameter, ^3H-thymidine incorporation measuring proliferation of OVA323-339-peptide-specific DO11.10 T cells cultured in the presence of OVA323-339-peptide pulsed GM-CSF derived dendritic cells, should not be affected by CD154-CD40 interactions, and thus was used as a screen for non-specific toxicity of the compounds to immune cell co-cultures. The second parameter, which is controlled in the DO11.10 T cell —OVA323-339-peptide loaded dendritic cell co-cultures by CD40 ligation, is that of Interferon-γ secretion by the activated T cells.
Thus, it was hypothesized that if it was possible to enhance immune function by stabilization of CD154-CD40 ligand pair interactions through prolonged stability of CD154 homotrimers, then IFN-γ production should be increased by addition of the small molecule compounds.
An initial screen was carried out with 18 compounds, using the in vitro screening process established in Example 2, above. Initially, all 18 compounds were evaluated for toxicity at 5 mM and 0.1 μM, by evaluation of proliferation of 16:1 and 64:1 ratio T:DC co-cultures. Second, expression of IFN-γ was observed and compared to that of control samples. Of the initial 18 small molecule compounds, 5 compounds were eliminated at this early stage because they inhibited T cell proliferation and were toxic to the cells in culture. […] These two compounds, JFPH and JFPB, were selected for further study, as described below.
Small molecules in DMSO vehicle were added at various dilutions to co-cultures of DC-T cells and after four days supernatants characterized for the production of IFNγ. […]

[2] = test system: syngeneic renal cell carcinoma (RCC) cells; test: sub-cutaneous renal cell carcinoma tumor model; assay type: in vivo, Balb/c mice; conditions: various concentrations, i.p. in olive oil 3x/week for 3 weeks from day 3
Protocol: (§1) In order to evaluate the efficacy of JFPH in a murine tumor model, Balb/c mice were first injected with syngeneic renal cell carcinoma (RCC) cells. The injections were delivered either sub-cutaneously or orthotopically under the kidney capsule (intra-renal). JFPH drug was diluted in olive oil to a desired concentration. Mice were injected with JFPH in olive oil intra-peritoneally 3×/week for a total of 3 weeks, beginning on day 3 post-tumor cell injection. As a vehicle control, mice were administered with only olive oil (no JFPH). For the sub-cutaneous tumor model, primary tumors were measured with calipers 3×/week and the tumor area was calculated. For the intra-renal tumor model, mice were euthanized on day 21 post tumor-cell injection and the lungs were harvested and placed in fixative. The number of lung metastases were then counted under a dissecting microscope.

[3] = test system: experimental autoimmune encephalomyelitis (EAE); test: mouse model of experimental autoimmune encephalomyelitis (EAE), PLP139-151 peptide in CFA; assay type: in vivo
Protocol: Experiments were conducted to confirm that the small molecules could stabilize and therefore enhance Th1 effector function in vivo. Efficacy was tested in a mouse model of experimental autoimmune encephalomyelitis (EAE), a model of Multiple Sclerosis (MS) (See, e.g., Karlsson et al., The Journal of Immunology, 2003, 170: 1019-1026).
EAE is dependent upon CD154-CD40 interactions in the central nervous system (CNS). Initial experiments were carried out to determine the effects of these small molecules on clinical disease severity in an optimal process of induction of EAE. The compounds should not modify the severity of clinical disease over that of the vehicle control treated animals, but enhancement and prolonged Th1 responses peripherally may be observed. Second, experiments were conducted to address whether the severity and/or incidence of EAE disease could be enhanced by the small molecule therapy in mice immunized with suboptimal myelin antigenic peptide, such that the small molecules might enhance in vivo functional activity of the antigen specific Th1 cells induced in these mice, that normally would have low incidence and severity of clinical disease.
Mice were immunized with PLP139-151-peptide in CFA and treated on days 9 and 10 with 100 nmol JFPH in olive oil or vehicle alone. Clinical disease was then evaluated. Clinical severity was assessed on a 0 to 5 scale as follows: grade 1, limp tail; grade 2, limp tail and hind limb weakness (waddling gait); grade 3, partial hind limb paralysis; grade 4, complete hind limb paralysis; and grade 5, moribund. The data are plotted as the daily mean clinical score for all animals in a particular treatment group, and mean day of onset for each mouse was determined and plotted (See, FIG. 5(b)) as a box and whisker plot. When optimal EAE induction was carried out using 50 μg doses of PLP139-151 peptide, disease severity was not affected by treatment with 100 nmol JFPH on days 9 and 10 post-immunization. However, the mean day of disease onset was earlier in the JFPH treated mice compared to vehicle controls (p<0.0001) as determined by a Wilcoxon Sign-Rank test.
In experiments where suboptimal induction of EAE was induced with 25 μg doses of PLP139-151 peptide, the incidence of disease was low for vehicle treated mice (60%) compared to that of JFPH treated mice (100%). Briefly, mice were immunized with 25 μg PLP139-151-peptide in CFA and treated on days 0, 1, 8 and 9 with 100 nmol JFPH in olive oil or vehicle of olive oil alone (FIG. 6, treatment days marked by downward triangles). Clinical disease was evaluated and the cumulative mean clinical scores determined by addition of scores cumulatively with each subsequent day of evaluation (FIG. 6, right panel). The average maximum score for vehicle treated mice was 1.2 (due in part to one individual mouse) versus 1.8 for JFPH treated mice, and in both mean day of onset and mean day of peak disease severity, the JFPH treated mice reached these time points an average of 3 days earlier than that of vehicle treated mice.

[4] = test system: syngeneic renal cell carcinoma (RCC) cells; test: intra-renal renal cell carcinoma tumor model, lung metastases; assay type: in vivo, Balb/c mice; conditions: 500 nmoles i.p. in olive oil 3x/week for 3 weeks
Protocol: as §1

[5] = suboptimal EAE induction, 25 μg PLP139-151
[6] = suboptimal EAE induction, 25 μg PLP139-151, 100 nmol days 0, 1, 8 and 9

Compound	T cell proliferation (DO11.10 T cells)	IFN-γ enhancement at the highest concentration [1]	IFN-γ secretion compared to control samples [1]	sub-cutaneous renal cancer tumor growth (tumor area) versus control mice [2]	disease onset ([3]; EAE induced under suboptimal conditions)	mean day of onset ([3]; optimal EAE induction, 50 μg PLP139-151, 100 nmol days 9 and 10, ± standard deviation) [days]	disease severity (clinical score 0 to 5) ([3]; optimal EAE induction, 50 μg PLP139-151, 100 nmol in olive oil days 9 and 10)	disease onset compared to vehicle controls ([3]; optimal EAE induction, 100 nmol days 9 and 10)	disease course longer than vehicle control [3, 5] [days]	mean day of onset, earlier than vehicle treated mice [3, 5] [days]	mean day of peak disease severity, earlier than vehicle treated mice [3, 5] [days]	average maximum score [3, 6]	incidence of disease [3, 6] [%]	mean day of remission versus vehicle ([3]; suboptimal EAE induction, remission = reduction of one full score for two days)	renal cancer metastasis (number of lung metastases, day 21) versus control mice [4]
CCOC(=O)NC(=O)c1cn(CCNc2ncc(C(F)(F)F)cc2Cl)c(=O)[nH]c1=O [JFPB, ethyl N-[[1-(2-[[3-chloro-5-(trifluoromethyl)-2-pyridinyl]amino]ethyl)-2,4-dioxo-1,2,3,4-tetrahydro-5-pyrimidinyl]carbonyl]carbamate]	no effect	reduced IFN-γ enhancement	consistently enhanced IFN-γ secretion	–	–	–	–	–	–	–	–	–	–	–	–
FC(F)(F)c1cc(N2CCCCCCC2)c2c(Cl)cc(Cl)cc2n1 [JFPH, 4-azocan-1-YL-5,7-dichloro-2-(trifluoromethyl)quinoline]	no effect	enhancement was observed	consistently enhanced IFN-γ secretion	delays sub-cutaneous growth of renal cancer; also recorded: delayed renal cancer tumor growth	accelerated disease onset	15.47 ± 1.68	not affected	accelerated disease onset; also recorded: earlier	3	3	3	1.8	100	no difference	reduces renal cancer metastasis; also recorded: significant reduction of renal cancer metastasis
